According to patent publication US7049323B2, “Amidoheterocycles as modulators of the melanocortin-4 receptor” (Bristol-Myers Squibb Company, priority 2003, dated 2006):

Molecular target: T1, cloned human MC4R receptors (Homo sapiens, UniProt P32245)
T1 construct: expressed in transfected cells; host or cells: Hi5 insect cells or HEK-293 cells (baculovirus/human MC4R receptor construct); membranes
Assay: Melanocortin MC4R membrane binding assay ([125I]NDP-α-MSH competition)
Conditions: [125I]NDP-α-MSH 0.1 nM, membranes of Hi5 insect cells or HEK-293 cells, 90 minutes at 37° C.
Method: Melanocortin MC4R Binding Assay. […] A membrane binding assay was used to identify competitive ligands of [^125I]NDP-α-MSH binding to cloned human MC4R receptors expressed in Hi5 insect cells or HEK-293 cells transfected by a baculovirus/human MC4R receptor construct. The membrane binding buffer was composed of 25 mM HEPES, pH 7.4, 140 mM NaCl, 1.2 mM MgCl2, 2.5 mM CaCl2, and 0.1% BSA Membrane protein (0.5 μg) and [^125I]-NDP-α-MSH (to a final concentration of 0.1 nM) were added. Competing ligands or a buffer blank were added and incubated for 90 minutes at 37° C. After filtration, the cell membranes were evaluated in a Wallac Microbeta Trilux Scintillation and Luminescence Counter (Model 1450). Dose-response cureves were fitted by […] analyses and IC50 values are calculated using ExcelFit.

T1 sequence (P32245 whole entry): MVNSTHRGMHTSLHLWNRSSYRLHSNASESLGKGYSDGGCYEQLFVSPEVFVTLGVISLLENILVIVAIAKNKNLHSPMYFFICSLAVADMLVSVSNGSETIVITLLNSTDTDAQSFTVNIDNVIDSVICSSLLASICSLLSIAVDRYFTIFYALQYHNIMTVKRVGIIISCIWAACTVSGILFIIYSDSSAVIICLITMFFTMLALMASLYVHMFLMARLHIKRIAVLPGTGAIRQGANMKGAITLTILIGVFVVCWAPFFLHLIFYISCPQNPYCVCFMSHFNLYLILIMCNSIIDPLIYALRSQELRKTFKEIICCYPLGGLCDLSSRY

`NCCC(=O)N[C@H](Cc1ccc(Cl)cc1)C(=O)N1CC[C@H](N(C(=O)CC2CCCC2)C2CCCCC2)C1` [Example 33] was tested, and the IC50 was under 250 nM.

In the case of `CN(C)CCC(=O)N[C@H](Cc1ccc(Cl)cc1)C(=O)N1CC(N(C2CCCCC2)S(=O)(=O)c2ccccc2)C1` [Example 5], the IC50 is reported as 250 to 1000 nM.

`O=C(N[C@H](Cc1ccc(Cl)cc1)C(=O)N1CC[C@@H](N(C(=O)c2ccno2)C2CCCCC2)C1)[C@H]1Cc2ccccc2CN1` [Example 19] gave an IC50 of 250 to 1000 nM.

`CCCCC(=O)N(C1CCCCC1)C1CN(C(=O)[C@@H](Cc2ccc(Cl)cc2)NC(=O)CCN(C)C)C1` [Example 11] was tested, and the IC50 was 250 to 1000 nM.

Compound `CC(=O)N(C1CCCCC1)[C@H]1CCN(C(=O)[C@@H](Cc2ccc(Cl)cc2)NC(=O)CCN)C1` [Example 43] has an IC50 of 1000 to 10000 nM.

With `CCCC(=O)N(C1CCCC1)C1CN(C(=O)[C@@H](Cc2ccc(Cl)cc2)NC(=O)CCN(C)C)C1` [Example 1] the IC50 was 250 to 1000 nM.

Work on `CC(C)CC(=O)N(C1CCCC1)[C@H]1CCN(C(=O)[C@@H](Cc2ccc(Cl)cc2)NC(=O)CCN(C)C)C1` [Example 61] yielded an IC50 of 1000 to 10000 nM.

`CC(C)N(C(=O)c1ccco1)[C@H]1CCN(C(=O)[C@@H](Cc2ccc(Cl)cc2)NC(=O)[C@H]2Cc3ccccc3CN2)C1` [Example 38] was tested, and the IC50 was 250 to 1000 nM.

Compound `NCCC(=O)N[C@H](Cc1ccc(Cl)cc1)C(=O)N1CC[C@H](N(C(=O)c2ccco2)C2CCCCC2)C1` [Example 26] has an IC50 of under 250 nM.

In the case of `CC(C)CN(C(=O)c1ccco1)[C@H]1CCN(C(=O)[C@@H](Cc2ccc(Cl)cc2)NC(=O)CCN(C)C)C1` [Example 65], the IC50 is reported as 1000 to 10000 nM.

For `CC(C)C(=O)N(C1CCCCC1)[C@H]1CCN(C(=O)[C@@H](Cc2ccc(Cl)cc2)NC(=O)CCN)C1` [Example 45], the IC50 was under 250 nM.

`CC(C)N(C(=O)c1ccco1)[C@H]1CCN(C(=O)[C@@H](Cc2ccc(Cl)cc2)NC(=O)CCN(C)C)C1` [Example 55] showed an IC50 of 1000 to 10000 nM.

Work on `CC(C)C(=O)N(C1CCCCC1)[C@H]1CCN(C(=O)[C@@H](Cc2ccc(Cl)cc2)NC(=O)[C@@H]2CCN2C)C1` [Example 69] yielded an IC50 of under 250 nM.

For `CC(C)CC(=O)N(CC(C)C)[C@H]1CCN(C(=O)[C@@H](Cc2ccc(Cl)cc2)NC(=O)CCN)C1` [Example 48], the IC50 was 1000 to 10000 nM.

`NCCC(=O)N[C@H](Cc1ccc(Cl)cc1)C(=O)N1CC[C@@H](N(C(=O)c2ccno2)C2CCCCC2)C1` [Example 23] was tested, and the IC50 was 1000 to 10000 nM.

Compound `CN(C)CCC(=O)N[C@H](Cc1ccc(Cl)cc1)C(=O)N1CC(N(C(=O)C2CCC2)C2CCCCC2)C1` [Example 7] has an IC50 of 250 to 1000 nM.

Work on `CS(=O)(=O)N(C1CCCCC1)[C@H]1CCN(C(=O)[C@@H](Cc2ccc(Cl)cc2)NC(=O)[C@H]2Cc3ccccc3CN2)C1` [Example 35] yielded an IC50 of under 250 nM.

With `CN(C)CCC(=O)N[C@H](Cc1ccc(Cl)cc1)C(=O)N1CC[C@H](N(C(=O)c2ccco2)C2CCCC2)C1` [Example 64] the IC50 was 250 to 1000 nM.

`CCCC(=O)N(C1CCCCCC1)C1CN(C(=O)[C@@H](Cc2ccc(Cl)cc2)NC(=O)CCN(C)C)C1` [Example 3] showed an IC50 of 250 to 1000 nM.

`CC(C)C(=O)N(C1CCCCC1)[C@H]1CCN(C(=O)[C@@H](Cc2ccc(Cl)cc2)NC(=O)CCN(C)C)C1` [Example 60] showed an IC50 of under 250 nM.

With `NCCC(=O)N[C@H](Cc1ccc(Cl)cc1)C(=O)N1CC[C@H](N(C(=O)c2ccccc2)C2CCCCC2)C1` [Example 27] the IC50 was under 250 nM.

Work on `CC(C)CN(C(=O)c1ccco1)[C@H]1CCN(C(=O)[C@@H](Cc2ccc(Cl)cc2)NC(=O)CCN)C1` [Example 47] yielded an IC50 of 1000 to 10000 nM.

With `NCCC(=O)N[C@H](Cc1ccc(Cl)cc1)C(=O)N1CC[C@H](N(C(=O)c2ccno2)C2CCCCC2)C1` [Example 22] the IC50 was under 250 nM.

`CN(C)CCC(=O)N[C@H](Cc1ccc(Cl)cc1)C(=O)N1CC[C@H](N(C2CCCCC2)S(=O)(=O)c2ccccc2)C1` [Example 67] was tested, and the IC50 was under 250 nM.

`NCCC(=O)N[C@H](Cc1ccc(Cl)cc1)C(=O)N1CC[C@H](N(C=O)C2CCCCC2)C1` [Example 44] gave an IC50 of 1000 to 10000 nM.

`NCCC(=O)N[C@H](Cc1ccc(Cl)cc1)C(=O)N1CC[C@H](N(C(=O)c2ccco2)C2CCCC2)C1` [Example 52] was tested, and the IC50 was 1000 to 10000 nM.

`CC(C)N([C@H]1CCN(C(=O)[C@@H](Cc2ccc(Cl)cc2)NC(=O)CCN(C)C)C1)S(C)(=O)=O` [Example 62] showed an IC50 of 1000 to 10000 nM.

Compound `CC(C)CC(=O)N(C1CCCCC1)C1CN(C(=O)[C@@H](Cc2ccc(Cl)cc2)NC(=O)CCN(C)C)C1` [Example 14] has an IC50 of under 250 nM.

With `CC(C)N(C(=O)c1ccco1)[C@@H]1CCN(C(=O)[C@@H](Cc2ccc(Cl)cc2)NC(=O)CCN)C1` [Example 36] the IC50 was 1000 to 10000 nM.

`CN(C)CCC(=O)N[C@H](Cc1ccc(Cl)cc1)C(=O)N1CC(N(C(=O)c2ccno2)C2CCCCC2)C1` [Example 6] was tested, and the IC50 was 1000 to 10000 nM.

`CC(C)(C)C(=O)N(C1CCCCC1)[C@H]1CCN(C(=O)[C@@H](Cc2ccc(Cl)cc2)NC(=O)CCN)C1` [Example 32] gave an IC50 of under 250 nM.

`COCC(=O)N(C1CCCCC1)[C@H]1CCN(C(=O)[C@@H](Cc2ccc(Cl)cc2)NC(=O)CCN)C1` [Example 31] showed an IC50 of 250 to 1000 nM.

In the case of `CCCC(=O)N(C1CCCCC1)[C@H]1CCN(C(=O)[C@@H](Cc2ccc(Cl)cc2)NC(=O)CCN)C1` [Example 30], the IC50 is reported as under 250 nM.

`CN(C)CCC(=O)N[C@H](Cc1ccc(Cl)cc1)C(=O)N1CC(N(C(=O)c2cc3ccccc3s2)C2CCCCC2)C1` [Example 12] showed an IC50 of 250 to 1000 nM.

Work on `CC(C)CC(=O)N(CC(C)C)[C@H]1CCN(C(=O)[C@@H](Cc2ccc(Cl)cc2)NC(=O)CCN(C)C)C1` [Example 66] yielded an IC50 of 1000 to 10000 nM.

`CS(=O)(=O)N(C1CCCCC1)[C@H]1CCN(C(=O)[C@@H](Cc2ccc(Cl)cc2)NC(=O)[C@@H]2CNCCN2)C1` [Example 40] gave an IC50 of 250 to 1000 nM.

Compound `CS(=O)(=O)N(C1CCCCC1)[C@H]1CCN(C(=O)[C@@H](Cc2ccc(Cl)cc2)NC(=O)CCN)C1` [Example 39] has an IC50 of 250 to 1000 nM.

`NCCC(=O)N[C@H](Cc1ccc(Cl)cc1)C(=O)N1CC[C@H](N(C(=O)c2ccco2)C2CCCCC2)C1` [Example 24] was tested, and the IC50 was 1000 to 10000 nM.

With `O=C(N[C@H](Cc1ccc(Cl)cc1)C(=O)N1CC[C@H](N(C(=O)c2ccno2)C2CCCCC2)C1)[C@H]1Cc2ccccc2CN1` [Example 18] the IC50 was under 250 nM.

For `NCCC(=O)N[C@H](Cc1ccc(Cl)cc1)C(=O)N1CC[C@H](N(C(=O)c2cnccn2)C2CCCCC2)C1` [Example 28], the IC50 was 250 to 1000 nM.

For `CN(C)CCC(=O)N[C@H](Cc1ccc(Cl)cc1)C(=O)N1CC(N(C(=O)CC(C)(C)C)C2CCCCC2)C1` [Example 9], the IC50 was 250 to 1000 nM.

`CN(C)CCC(=O)N[C@H](Cc1ccc(Cl)cc1)C(=O)N1CC[C@H](N(C=O)C2CCCCC2)C1` [Example 59] was tested, and the IC50 was 1000 to 10000 nM.

`CC(C)N([C@H]1CCN(C(=O)[C@@H](Cc2ccc(Cl)cc2)NC(=O)CCN)C1)S(C)(=O)=O` [Example 53] was tested, and the IC50 was 1000 to 10000 nM.

In the case of `O=C(N[C@H](Cc1ccc(Cl)cc1)C(=O)N1CCC(N(C(=O)c2ccno2)C2CCCCC2)C1)[C@H]1Cc2ccccc2CN1` (stereo partly drawn) [Example 17], the IC50 is reported as under 250 nM.

`CCCC(=O)N(C1CCCCC1)C1CN(C(=O)[C@@H](Cc2ccc(Cl)cc2)NC(=O)CCN(C)C)C1` [Example 2] showed an IC50 of under 250 nM.
